Patent EP1602719B1, “Control of transglutaminase catalyzed protein modification by selective irreversible transglutaminase inhibitors” (N-Zyme BioTec GmbH, priority 2004, dated 2005)
Peptide text beside a SMILES is read from it. * marks the point of attachment. Cbz = O=C(OCc1ccccc1)*; Acryloyl = C=CC(=O)*

Molecular target: T1, Meerschweinchenlebertransglutaminase (Cavia cutleri, UniProt P08587)
T1 sequence (P08587 1-690): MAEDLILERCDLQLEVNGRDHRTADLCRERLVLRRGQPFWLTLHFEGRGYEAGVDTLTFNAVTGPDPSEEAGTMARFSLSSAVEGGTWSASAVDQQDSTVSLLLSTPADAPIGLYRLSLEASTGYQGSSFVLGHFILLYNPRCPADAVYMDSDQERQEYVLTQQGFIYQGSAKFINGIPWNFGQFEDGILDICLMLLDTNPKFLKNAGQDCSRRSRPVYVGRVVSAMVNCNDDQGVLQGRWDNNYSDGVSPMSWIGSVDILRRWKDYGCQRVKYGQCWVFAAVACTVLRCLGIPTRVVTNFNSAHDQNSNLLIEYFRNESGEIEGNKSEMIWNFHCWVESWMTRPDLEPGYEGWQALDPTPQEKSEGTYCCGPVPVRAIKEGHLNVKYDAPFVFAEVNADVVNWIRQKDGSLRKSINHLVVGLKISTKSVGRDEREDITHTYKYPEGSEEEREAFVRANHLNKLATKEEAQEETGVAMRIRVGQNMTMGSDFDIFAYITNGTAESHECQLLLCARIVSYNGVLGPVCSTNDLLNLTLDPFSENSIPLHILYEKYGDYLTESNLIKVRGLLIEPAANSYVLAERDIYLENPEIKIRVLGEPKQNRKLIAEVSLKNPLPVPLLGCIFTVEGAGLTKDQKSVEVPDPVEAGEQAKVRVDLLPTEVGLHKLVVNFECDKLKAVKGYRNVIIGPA
Experiment: Transglutaminase-catalysed labelling of recombinant hLeptin with Z-Gln-Gly-CAD-DNS, reaction stopped by inhibitor, RP-HPLC (Beispiel 7)
Type: biochemical, Meerschweinchen
Conditions: inhibitor 0,5 mM
Procedure: Alle nachfolgend beschriebenen Experimente wurden nach dem gleichen Standardprotokoll durchgeführt. Dabei werden das jeweilige Zielprotein und das farbstofftragende amin- oder glutaminhaltige Substrat in einem geeigneten Puffer vorgelegt und für 5 Min. auf 37°C temperiert. Anschließend wird durch Zugabe von Transglutaminase die Reaktion gestartet. Nach variierenden Inkubationszeiten, durch die jeweils verschiedene Markierungsgrade erreicht werden, wird durch Zugabe eines Inhibitors die Transglutaminase vollständig und irreversibel inaktiviert (Reaktionsabbruch 1). In Kontrollexperimenten wird die Markierungsreaktion durch Abtrennung des ungebundenen, farbstofftragenden Substrates unterbrochen (Reaktionsabbruch 2). Die Abtrennung des ungebundenen Farbstoffes erfolgt unter Normaldruck über eine PD-10-Säule (Amersham Biosciences). Dieses allgemein einsetzbare Verfahren zur schnellen Abtrennung kleiner Moleküle von Makromolekülen wie Proteinen basiert auf dem Prinzip der Gelpermeationschromatographie und kann als das vorteilhafteste Verfahren zur Reaktionskontrolle nach dem Stand der Technik angesehen werden. Andere Verfahren, mit denen die weitere katalytische Markierungsreaktion abgebrochen werden könnte, sind weniger geeignet oder nicht allgemein einsetzbar (z. B. thermische, unspezifische chemische oder affinitätschromatographische Methoden). Die Gelpermeationschromatographie wurde jeweils so schnell wie technisch machbar durchgeführt. Dazu wird auf die vorkonditionierte PD-10-Säule 2,5 ml des Reaktionsvolumens aufgetragen und die Lösung vollständig in das Trennmaterial eingebracht. Anschließend wird das Protein mit 3,5 ml Puffer eluiert. Die niedermolekularen Substanzen verbleiben auf der Säule. Der Gesamtprozess benötigt eine Zeitspanne von mindestens 3 Minuten. Während dieser Zeit kann Transglutaminase weiter auf das Zielprotein einwirken. […]

With `C=CC(=O)NCCCC[C@H](NC(=O)OCc1ccccc1)C(=O)NCC(=O)O` [Z-Lys(Acryloylamid)-Gly-OH, N^α-Benzyloxycarbonyl-L-lysinyl(ε-acryloyl)glycin] (Cbz-Lys(Acryloyl)-Gly-OH) as the compound, how does the “Inaktivierung der Meerschweinchenlebertransglutaminase” value (added after 5 Min., GpTGase 0,25 U/ml, pH 8) read?
Its value is “vollständig”.

And the “weitere Labeling- und Quervernetzungsreaktionen” value (stopped reaction mixture kept at RT for 30 and 60 Min.)?
The value was “keine weitere Labeling- und Quervernetzungsreaktionen”.

And the “weitere enzymatische Reaktionen nach Lagerung” value (stored 10 days at -20°C, then one hour at RT)?
The value was “keine weiteren enzymatischen Reaktionen mehr”.
